Broadly, the pKi is the negative decadic logarithm of the Ki, by convention in mol/L. Usually pIC50 stands for the IC50 on a negative log10 scale, so that one unit is a factor of ten.

One experiment addresses T1, HCV NS3-NS4A protease (Hepatitis C virus genotype 1a, UniProt P27958).
T1 construct: The buffer, KK4A, DTT, and tNS3 were combined
Description: HCV enzyme assay (HPLC microbore separation of 5AB substrate and products). Type of experiment: biochemical. Here is the method:
HCV Enzyme Assay Protocol
HPLC Microbore Method for Separation of 5AB Substrate and Products
• NH2-Glu-Asp-Val-Val-(alpha)Abu-Cys-Ser-Met-Ser-Tyr-COOH
A stock solution of 20 mM 5AB (or concentration of your choice) was made in DMSO w/0.2M DTT. This was stored in aliquots at −20 C.
Buffer: 50 mM HEPES, pH 7.8; 20% glycerol; 100 mM NaCl
Total assay volume was 100 μL
The buffer, KK4A, DTT, and tNS3 were combined; distributed 78 μL each into wells of 96 well plate. This was incubated at 30 C for ˜5-10 min.
2.5 μL of appropriate concentration of test compound was dissolved in DMSO (DMSO only for control) and added to each well. This was incubated at room temperature for 15 min.
Incubated for 20 min at 30 C.
Terminated reaction by addition of 25 μL of 10% TFA
Transferred 120 μL aliquots to HPLC vials
Separated SMSY product from substrate and KK4A by the following method:
Microbore Separation Method:
Instrumentation: Agilent 1100
• Degasser G1322A • Binary pump G1312A • Autosampler G1313A • Column thermostated chamber G1316A • Diode array detector G1315A Column: • Phenomenex Jupiter; 5 micron C18; 300 angstroms; 150×2 mm; P/O 00F-4053-B0 • Column thermostat: 40 C • Injection volume: 100 μL • Solvent A=HPLC grade water+0.1% TFA • Solvent B=HPLC grade acetonitrile+0.1% TFA
• Stop time: 17 min • Post-run time: 10 min.

For experiment [1], the system named is Cells containing hepatitis C virus (HCV) replicon. The experiment in a line: HCV replicon cell assay. Type of experiment: cell-based. How it is done:
HCV Replicon Cell Assay Protocol:
Cells containing hepatitis C virus (HCV) replicon were maintained in DMEM containing 10% fetal bovine serum (FBS), 0.25 mg per ml of G418, with appropriate supplements (media A).
On day 1, replicon cell monolayer was treated with a trypsin: EDTA mixture, removed, and then media A was diluted into a final concentration of 100,000 cells per ml wit. 10,000 cells in 100 ul were plated into each well of a 96-well tissue culture plate, and cultured overnight in a tissue culture incubator at 37° C.
On day 2, compounds (in 100% DMSO) were serially diluted into DMEM containing 2% FBS, 0.5% DMSO, with appropriate supplements (media B). The final concentration of DMSO was maintained at 0.5% throughout the dilution series.
Media on the replicon cell monolayer was removed, and then media B containing various concentrations of compounds was added. Media B without any compound was added to other wells as no compound controls.
Cells were incubated with compound or 0.5% DMSO in media B for 48 hours in a tissue culture incubator at 37° C. At the end of the 48-hour incubation, the media was removed, and the replicon cell monolayer was washed once with PBS and stored at −80° C. prior to RNA extraction.
Culture plates with treated replicon cell monolayers were thawed, and a fixed amount of another RNA virus, such as Bovine Viral Diarrhea Virus (BVDV) was added to cells in each well. RNA extraction reagents (such as reagents from RNeasy kits) were added to the cells immediately to avoid degradation of RNA. Total RNA was extracted according the instruction of manufacturer with modification to improve extraction efficiency and consistency. Finally, total cellular RNA, including HCV replicon RNA, was eluted and stored at −80° C. until further processing.
A Taqman real-time RT-PCR quantification assay was set up with two sets of specific primers and probe. One was for HCV and the other was for BVDV. Total RNA extractants from treated HCV replicon cells was added to the PCR reactions for quantification of both HCV and BVDV RNA in the same PCR well. Experimental failure was flagged and rejected based on the level of BVDV RNA in each well. The level of HCV RNA in each well was calculated according to a standard curve run in the same PCR plate. The percentage of inhibition or decrease of HCV RNA level due to compound treatment was calculated using the DMSO or no compound control as 0% of inhibition. The IC50 (concentration at which 50% inhibition of HCV RNA level is observed) was calculated from the titration curve of any given compound.
(In general: Replicon systems follow genome replication, usually without infectious particles.)

[2] abbreviates: 50% inhibition of HCV RNA level, 48-hour incubation, Taqman real-time RT-PCR, read-out: IC50.

pIC50, pKi: −log10 of the molar value. Read-outs that look alike come from different tables or passages of the source.

T1 sequence (P27958 1027-1208): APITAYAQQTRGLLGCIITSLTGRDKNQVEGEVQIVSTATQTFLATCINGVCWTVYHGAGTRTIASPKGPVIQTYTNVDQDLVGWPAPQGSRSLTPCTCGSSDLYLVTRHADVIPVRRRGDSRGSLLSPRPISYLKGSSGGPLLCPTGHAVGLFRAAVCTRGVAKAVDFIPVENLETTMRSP

Take `CCC[C@H](NC(=O)[C@@H]1CC2CCCCC2N1C(=O)[C@@H](NC(=O)[C@@H](NC(=O)C(=O)Nc1ccccc1)C1CCCCC1)C(C)(C)C)C(=O)C(=O)NC1CC1` (stereo partly drawn) [Compound 1]: on HCV NS3-NS4A protease (25 nM tNS3, 25 μM KK4A, 25 μM 5AB substrate, 20 min at 30 C, read-out: Ki), the negative logarithm of the Ki (pKi) was 6.60 to 7.00. This compound also showed a pIC50 in experiment [1] (48 h) of 6.00 to 6.60.
`CCC[C@H](NC(=O)[C@@H]1C[C@@H]2CCCC[C@@H]2N1C(=O)[C@@H](NC(=O)[C@@H](NC(=O)C(=O)NCc1ccccc1)C1CCCCC1)C(C)(C)C)C(=O)C(=O)NC1CC1` [Compound 2] had a negative logarithm of the Ki (pKi) on HCV NS3-NS4A protease of 6.60 to 7.00. Besides, in experiment [1] (setting [2]), the pIC50 was 6.00 to 6.60.
Turning to `CCC[C@H](NC(=O)[C@@H]1C[C@@H]2CCCC[C@@H]2N1C(=O)[C@@H](NC(=O)[C@@H](NC(=O)C(=O)NCC1CCCCC1)C1CCCCC1)C(C)(C)C)C(=O)C(=O)NC1CC1` [Compound 3], the pKi on HCV NS3-NS4A protease is 6.60 to 7.00. Moreover, the negative-log IC50 (pIC50) in experiment [1] (setting [2]) was 6.00 to 6.60.
The matching figures for `CCC[C@H](NC(=O)[C@@H]1C[C@@H]2CCCC[C@@H]2N1C(=O)[C@@H](NC(=O)[C@@H](NC(=O)C(=O)NC1CC1)C1CCCCC1)C(C)(C)C)C(=O)C(=O)NC1CC1` [Compound 4]: 6.60 to 7.00 and 6.00 to 6.60.
For `CCC[C@H](NC(=O)[C@@H]1C[C@@H]2CCCC[C@@H]2N1C(=O)[C@@H](NC(=O)[C@@H](NC(=O)C(=O)NC(C)C)C1CCCCC1)C(C)(C)C)C(=O)C(=O)NC1CC1` [Compound 5], at HCV NS3-NS4A protease, the negative logarithm of the Ki (pKi) was 6.60 to 7.00. Also, the pIC50 in experiment [1] (setting [2]) is 6.00 to 6.60.
The corresponding values for `CCC[C@H](NC(=O)[C@@H]1C[C@@H]2CCCC[C@@H]2N1C(=O)[C@@H](NC(=O)[C@@H](NC(=O)C(=O)NCC(C)C)C1CCCCC1)C(C)(C)C)C(=O)C(=O)NC1CC1` [Compound 6] are 6.60 to 7.00 and 6.00 to 6.60.
Regarding `CCC[C@H](NC(=O)[C@@H]1C[C@@H]2CCCC[C@@H]2N1C(=O)[C@@H](NC(=O)[C@@H](NC(=O)C(=O)Nc1cc(C)on1)C1CCCCC1)C(C)(C)C)C(=O)C(=O)NC1CC1` [Compound 7], the pKi on HCV NS3-NS4A protease is 6.60 to 7.00. For the same compound, in experiment [1] (setting [2]), the pIC50 was 6.00 to 6.60.
The matching figures for `CCC[C@H](NC(=O)[C@@H]1C[C@@H]2CCCC[C@@H]2N1C(=O)[C@@H](NC(=O)[C@@H](NC(=O)C(=O)NC1CCCCC1)C1CCCCC1)C(C)(C)C)C(=O)C(=O)NC1CC1` [Compound 8]: 6.60 to 7.00 and 6.00 to 6.60.
In turn, `CCC[C@H](NC(=O)[C@@H]1C[C@@H]2CCCC[C@@H]2N1C(=O)[C@@H](NC(=O)[C@@H](NC(=O)C(=O)NC1CCCC1)C1CCCCC1)C(C)(C)C)C(=O)C(=O)NC1CC1` [Compound 9] gave a negative-log Ki (pKi) at HCV NS3-NS4A protease of 6.00 to 6.60. Further, the pIC50 in experiment [1] (setting [2]) is 6.00 to 6.60.
In turn, `CCC[C@H](NC(=O)C1C[C@@H](Oc2ccc(Cl)cn2)CN1C(=O)[C@@H](NC(=O)[C@@H](NC(=O)C(=O)NC1CC1)C1CCCCC1)C(C)(C)C)C(=O)C(=O)NC1CC1` (stereo partly drawn) [Compound 10] showed a pKi on HCV NS3-NS4A protease of 6.60 to 7.00. Further, in experiment [1] (setting [2]), the pIC50 was over 7.00.
Compound `CCC[C@H](NC(=O)[C@@H]1C[C@@H](Oc2ccc(Cl)cn2)CN1C(=O)[C@@H](NC(=O)[C@@H](NC(=O)C(=O)NCc1ccccc1)C1CCCCC1)C(C)(C)C)C(=O)C(=O)NC1CC1` [Compound 11] showed a pKi at HCV NS3-NS4A protease of 6.60 to 7.00. Further, the pIC50 in experiment [1] (setting [2]) was over 7.00.
Consider `CCC[C@H](NC(=O)[C@@H]1C[C@@H](Oc2ccc(Cl)cn2)CN1C(=O)[C@@H](NC(=O)[C@@H](NC(=O)C(=O)NCC(C)C)C1CCCCC1)C(C)(C)C)C(=O)C(=O)NC1CC1` [Compound 12], for which the negative logarithm of the Ki (pKi) on HCV NS3-NS4A protease is 6.60 to 7.00. The pIC50 in experiment [1] (setting [2]) is over 7.00.

These data come from patent US8426359B2, “Inhibitors of serine proteases, particularly HCV NS3-NS4A protease” (Vertex Pharmaceuticals Incorporated, priority 2003, dated 2013).
